Laboratory results taken from patent US5416090A, “Method of treating inflammation” (priority 1992, dated 1995).
Like-named read-outs stand apart in the source and are kept apart here.

Experiments:
[1] = system: delayed type hypersensitivity (DTH) in adrenalectomized mice; assay: DTH response in adrenalectomized (ADX) mice; assay type: in vivo, mouse (Balb/c); settings: FIG. 10B
Description: CMC= carboxymethylcellulose vehicle control; NEG=negative control for DTH; POS=positive control for DTH.
(§1) Dopamine agonists are known to elevate circulating glucocorticoid levels, via activation of the hypothalamo-pituitary-adrenal axis. […] Since glucocorticoids are potential endogenous anti-inflammatory substances, this action is one potential mechanism for the anti-inflammatory effect of the ergolines. However, in subsequent inflammation studies, the anti-inflammatory effects of D-1-isopropyl-6-n-propyl-8β-methylthiomethyl ergoline were retained in mice lacking an adrenal gland and therefore devoid of the increase in circulating corticosterone. (FIG. 10B)
Male Balb/c mice (Charles River) weighing 20 to 25 g were used in all DTH studies. When adrenalectomized studies were carried out, sham surgery and adrenalectomized mice were obtained from the vendor. Animals were maintained on a 12:12 hour light:dark cycle. […]
A DTH response was assessed by measuring the degree of rear foot pad swelling induced by picryl chloride. […] On day 3, mice were anesthetized with methoxyflurane, and the baseline rear foot pad thickness was measured with a micrometer (Mitutoyo) in μ, and was recorded in duplicate. […] Twenty-four hours later, the mice were sacrificed by CO2 asphyxiation and each rear foot pad was again measured in duplicate, and any evidence of foot pad swelling was calculated. […]

[2] = system: dopamine receptor (DTH response); assay: Reversal of DTH inhibition by dopamine receptor antagonists; assay type: in vivo, mouse; settings: FIG. 9 Panels B, C legend; pretreated with domperidone or sulpiride
Protocol: Male Balb/c mice (Charles River) weighing 20 to 25 g were used in all DTH studies. When adrenalectomized studies were carried out, sham surgery and adrenalectomized mice were obtained from the vendor. Animals were maintained on a 12:12 hour light:dark cycle. Mice were allowed ad lib access for food (Purina lab chow) and water (normal saline for adrenalectomized animals).
A DTH response was assessed by measuring the degree of rear foot pad swelling induced by picryl chloride. On day 0, mice were sensitized with 100 μl of 5% picryl chloride (in ethanol), which was applied to a shaved abdomen. Negative control groups were shaved but not sensitized. On day 3, mice were anesthetized with methoxyflurane, and the baseline rear foot pad thickness was measured with a micrometer (Mitutoyo) in μ, and was recorded in duplicate. Fifty μl of picryl chloride was then applied to each pad with a pipet (Rainen) while the animal was unconscious. The negative controls also received picryl chloride at this point to control for primary irritancy. Twenty-four hours later, the mice were sacrificed by CO2 asphyxiation and each rear foot pad was again measured in duplicate, and any evidence of foot pad swelling was calculated. The mean rear foot swelling change of both pads for each animal from days 3 to 4 was used as the index of immune function in the DTH assay.
Unless otherwise stated all animals were given four subcutaneous doses of test compound just prior to picryl chloride sensitization on day 0, on day 1 and day 2, and just prior to picryl chloride challenge on day 3. In a few experiments, compounds were administered via oral or intraperitoneal routes. All drugs were delivered as suspensions in 1% carboxy-methylcellulose (also contained 0.8% NaCl, 1% polysorbate-80, 1.4% benzyl alcohol). Carboxymethyl-cellulose (1%) was used in control injections.

[3] = system: lipoidal amine induced arthritis; assay: Lipoidal amine induced polyarthritis (hind paw volume and weight); assay type: in vivo, rat (Lewis); settings: for minimal effective dose: Rattus norvegicus
Protocol: Lipoidal amine induced polyarthritis is an animal arthritis model originally described by Chang, Y., et al. in Arthritis and Rheumatism 23:62-71 (1980). The lipoidal amine induced polyarthritis results from injection of N,N-dioctadecyl-N^1,N-bis(2-hydroxyethyl) propanediamine (7.5 mg/kg Lewis rat (220-225 g)), which is suspended in oil, intradermally at the base of the tail.

[4] = system: corticosterone; assay: Serum/plasma corticosterone levels in mice; assay type: in vivo, mouse (Balb/C); settings: FIG. 10 Panel A; 1 and 3 hr. following injection
Description: as §1
Both Balb/C mice (male, approximately 20 g, Charles Rivers) and Lewis rats (male, approximately 200 g, Charles River or Harlan Sprague Dawley) were used in neuroendocrine studies. Animals were maintained on a 12:12 hour light:dark cycle and were allowed ad lib access for food (Purina lab chow) and water. Experimental groups consisted of 6 to 8 animals.
After dosing with test compounds, animals were sacrificed by decapitation at 1, 3, 8 or 24 hour intervals. Trunk blood was collected, allowed to clot and serum obtained after centrifugation (3000 rpm for 15 min.). Serum was aliquoted and stored at -70° C. for subsequent radioimmunoassays. Serum prolactin was determined by radioimmunoassay. Serum corticosterone levels were determined with a kit designed for such determinations and obtained from ICN.

[5] = Toxicity study / survival in mice; assay type: in vivo, mouse; settings: FIG. 4; survival curve
Protocol: FIG. 4 Effect of 2 or 4 days treatment with compound 1 on a murine delayed type hypersensitivity (DTH) response (panel A) and toxicity study with compound 1 in mice (panel B). NEG=negative control for DTH; POS=positive control for DTH; CMC=carboxymethylcellulose (vehicle).
The activity of ergoline compounds was also evaluated in a murine delayed-type hypersensitivity (DTH) assay. The DTH assay was performed in substantial accordance with the method set forth in Example 1. Briefly, mice were sensitized by topical administration of picryl chloride on day 1 of the assay. On day 4 paw size was determined and recorded and the paw was then challenged with picryl chloride. The challenged paw was remeasured on day 5 to quantitate the DTH response via the increase in paw size. Results of the effects of compound D-1-isopropyl-6-n-propyl-8β-methylthiomethyl ergoline in the murine DTH model are presented in FIG. 4. FIG. 4, Panel A illustrates the efficacy of compound D-1-isopropyl-6-n-propyl-8β-methylthiomethyl ergoline in reducing paw swelling. […] FIG. 4, Panel B is a survival curve of mice treated with varying dosages of D-1-isopropyl-6-n-propyl-8β-methylthiomethyl ergoline.

With `CCCN1C[C@H](CSC)C[C@@H]2c3cccc4c3c(cn4C(C)C)C[C@H]21` [Compound 1, D-1-isopropyl-6-n-propyl-8β-methylthiomethyl ergoline] the “anti-inflammatory effect in mice lacking an adrenal gland” value ([1]; listed as D-1-isopropyl-6-n-propyl-8β-methylthiomethyl ergoline) was “retained”, the “anti-inflammatory effect in mice lacking an adrenal gland” value ([1]; listed as compound 1) was “inhibitory effect” and the “reversal of DTH inhibition by antagonist pretreatment” value [2] was “reversal of inhibition of the DTH”. For the same compound, the “effect on increase in hind paw volume and weight” value ([3]; FIG. 1) was “Inhibitory effect”, the minimal effective dose ([3]; read-out: dosage giving statistically significant decrease in paw volume, FIG. 1 Panel A) was ≥ 0.7 mg/kg and the minimal effective dose ([3]; read-out: dosage giving statistically significant decrease in paw weight, FIG. 1 Panel B) was ≥ 0.7 mg/kg. The “effect on plasma corticosterone” value [4] was “increase plasma cortiosterone” and the “efficacious DTH dosages relative to toxic level” value [5] was “well within the toxic level of the compound”.
